# Data from ChEMBL document CHEMBL2086238, “Identification of ETP-46321, a potent and orally bioavailable PI3K α, δ inhibitor” (Bioorg Med Chem Lett, 2012).
# Assays:
# [1] = biological target: PI3-kinase p110-alpha/p85-alpha (Homo sapiens, UniProt P42336); experiment: Inhibition of human PI3Kalpha (p110alpha/p85alpha) by ADP accumulation based HTRF assay; assay type: protein-complex assay; details: for Ki: read-out: Ki(app)
# CYP2D6 = CYP2D6 (Homo sapiens, UniProt P10635); experiment: Inhibition of CYP2D6 at 10 uM; assay type: ADME
# CYP2D6, sequence (P10635 whole entry): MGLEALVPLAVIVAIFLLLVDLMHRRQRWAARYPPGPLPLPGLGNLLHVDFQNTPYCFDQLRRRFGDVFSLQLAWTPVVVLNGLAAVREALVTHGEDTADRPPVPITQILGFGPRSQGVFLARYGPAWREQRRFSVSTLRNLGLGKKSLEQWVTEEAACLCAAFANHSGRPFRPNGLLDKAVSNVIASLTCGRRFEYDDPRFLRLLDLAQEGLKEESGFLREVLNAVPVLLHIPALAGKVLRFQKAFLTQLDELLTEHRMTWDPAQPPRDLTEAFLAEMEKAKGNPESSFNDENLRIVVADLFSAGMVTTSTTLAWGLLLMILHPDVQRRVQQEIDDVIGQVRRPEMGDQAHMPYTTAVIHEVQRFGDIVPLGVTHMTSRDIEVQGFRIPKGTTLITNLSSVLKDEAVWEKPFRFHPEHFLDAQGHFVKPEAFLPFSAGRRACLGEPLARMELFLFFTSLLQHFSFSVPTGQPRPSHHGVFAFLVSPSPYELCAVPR
# [2] = biological target: PI3-kinase p110-delta/p85-alpha (Homo sapiens, UniProt O00329); experiment: Inhibition of human PI3Kdelta (p110delta/p85alpha) by ADP accumulation based HTRF assay; assay type: protein-complex assay; details: read-out: Ki(app)
# CYP1A2 = biological target: T1, CYP1A2 (Homo sapiens, UniProt P05177); experiment: Inhibition of CYP1A2 at 10 uM; assay type: ADME
# T1 sequence (P05177 whole entry): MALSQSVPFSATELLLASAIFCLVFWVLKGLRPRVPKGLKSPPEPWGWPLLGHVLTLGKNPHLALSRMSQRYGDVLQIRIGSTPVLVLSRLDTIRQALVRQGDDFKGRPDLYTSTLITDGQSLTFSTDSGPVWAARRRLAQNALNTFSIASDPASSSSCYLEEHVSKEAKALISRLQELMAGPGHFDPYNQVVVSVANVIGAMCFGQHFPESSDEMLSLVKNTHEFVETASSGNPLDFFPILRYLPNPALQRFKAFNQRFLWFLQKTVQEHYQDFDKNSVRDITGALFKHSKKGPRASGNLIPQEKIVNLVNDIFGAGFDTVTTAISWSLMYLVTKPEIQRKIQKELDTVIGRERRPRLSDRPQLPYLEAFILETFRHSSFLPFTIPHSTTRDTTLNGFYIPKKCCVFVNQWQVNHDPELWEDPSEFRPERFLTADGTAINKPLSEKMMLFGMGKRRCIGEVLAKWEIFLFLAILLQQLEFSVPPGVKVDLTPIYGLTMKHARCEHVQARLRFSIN
# CYP2C9 = CYP2C9 (Homo sapiens, UniProt P11712); experiment: Inhibition of CYP2C9 at 10 uM; assay type: ADME
# CYP2C9, sequence (P11712 whole entry): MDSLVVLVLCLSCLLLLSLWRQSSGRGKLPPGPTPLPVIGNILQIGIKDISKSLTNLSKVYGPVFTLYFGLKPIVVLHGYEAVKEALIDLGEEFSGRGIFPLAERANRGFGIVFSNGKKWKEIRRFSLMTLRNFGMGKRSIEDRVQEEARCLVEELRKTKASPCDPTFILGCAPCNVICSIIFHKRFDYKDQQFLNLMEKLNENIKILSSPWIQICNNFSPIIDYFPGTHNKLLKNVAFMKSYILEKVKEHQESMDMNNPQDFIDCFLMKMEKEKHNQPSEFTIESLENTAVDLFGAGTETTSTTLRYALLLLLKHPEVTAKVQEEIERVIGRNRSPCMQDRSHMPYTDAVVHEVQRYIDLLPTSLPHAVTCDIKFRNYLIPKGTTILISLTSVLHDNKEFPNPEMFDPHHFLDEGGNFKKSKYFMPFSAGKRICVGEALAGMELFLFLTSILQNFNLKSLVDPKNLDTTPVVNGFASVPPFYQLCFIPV
# [3] = Stability in mouse liver microsomes at 1 uM incubated for 15 mins; assay type: ADME, Microsome; details: read-out: Stability
# [4] = biological target: Phosphatidylinositol 4,5-bisphosphate 3-kinase catalytic subunit alpha isoform (Homo sapiens, UniProt P42336); experiment: Inhibition of PI3Kalpha in human U2OS cells assessed as inhibition of AKT Ser 473 phosphorylation by Western blot; assay type: cell-based
# Phosphatidylinositol 4,5-bisphosphate 3-kinase catalytic subunit alpha isoform, sequence (P42336 whole entry, canonical isoform): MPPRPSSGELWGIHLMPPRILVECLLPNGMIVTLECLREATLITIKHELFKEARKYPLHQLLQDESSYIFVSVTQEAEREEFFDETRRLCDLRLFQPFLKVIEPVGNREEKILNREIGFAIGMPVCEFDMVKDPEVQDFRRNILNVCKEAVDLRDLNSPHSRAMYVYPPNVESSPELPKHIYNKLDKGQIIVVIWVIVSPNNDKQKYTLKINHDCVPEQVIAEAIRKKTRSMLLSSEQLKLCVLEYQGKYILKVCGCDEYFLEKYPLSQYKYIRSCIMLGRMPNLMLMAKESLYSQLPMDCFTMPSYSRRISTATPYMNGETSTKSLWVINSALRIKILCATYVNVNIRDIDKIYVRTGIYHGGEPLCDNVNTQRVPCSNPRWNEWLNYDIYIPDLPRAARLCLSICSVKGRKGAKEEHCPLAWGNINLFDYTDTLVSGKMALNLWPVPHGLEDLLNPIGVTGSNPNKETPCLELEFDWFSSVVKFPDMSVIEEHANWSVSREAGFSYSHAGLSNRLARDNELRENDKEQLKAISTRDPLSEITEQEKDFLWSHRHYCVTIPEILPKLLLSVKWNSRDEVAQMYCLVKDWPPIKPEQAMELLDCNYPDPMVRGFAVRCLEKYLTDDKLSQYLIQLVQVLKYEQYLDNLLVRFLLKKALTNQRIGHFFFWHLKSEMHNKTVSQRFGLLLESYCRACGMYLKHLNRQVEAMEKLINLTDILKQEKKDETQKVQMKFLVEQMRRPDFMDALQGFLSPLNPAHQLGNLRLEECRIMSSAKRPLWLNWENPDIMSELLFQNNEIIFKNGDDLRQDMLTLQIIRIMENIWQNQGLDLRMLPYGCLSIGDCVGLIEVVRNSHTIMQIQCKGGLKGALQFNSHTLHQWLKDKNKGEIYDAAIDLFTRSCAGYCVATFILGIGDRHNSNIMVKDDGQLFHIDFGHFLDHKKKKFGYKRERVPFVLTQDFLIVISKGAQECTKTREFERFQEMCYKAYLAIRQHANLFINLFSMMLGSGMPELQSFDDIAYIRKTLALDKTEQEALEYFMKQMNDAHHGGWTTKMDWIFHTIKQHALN
# PI3K p110 beta/p85 alpha = PI3K p110 beta/p85 alpha (Homo sapiens, UniProt P42338); experiment: Inhibition of human PI3Kbeta (p110beta/p85alpha) by ADP accumulation based HTRF assay; assay type: protein-complex assay; details: read-out: Ki(app)
# [5] = biological target: Phosphatidylinositol 4,5-bisphosphate 3-kinase catalytic subunit gamma isoform (Homo sapiens, UniProt P48736); experiment: Inhibition of human PI3Kgamma by ADP accumulation based HTRF assay; details: read-out: Ki(app)
# Phosphatidylinositol 4,5-bisphosphate 3-kinase catalytic subunit gamma isoform, sequence (P48736 whole entry, canonical isoform): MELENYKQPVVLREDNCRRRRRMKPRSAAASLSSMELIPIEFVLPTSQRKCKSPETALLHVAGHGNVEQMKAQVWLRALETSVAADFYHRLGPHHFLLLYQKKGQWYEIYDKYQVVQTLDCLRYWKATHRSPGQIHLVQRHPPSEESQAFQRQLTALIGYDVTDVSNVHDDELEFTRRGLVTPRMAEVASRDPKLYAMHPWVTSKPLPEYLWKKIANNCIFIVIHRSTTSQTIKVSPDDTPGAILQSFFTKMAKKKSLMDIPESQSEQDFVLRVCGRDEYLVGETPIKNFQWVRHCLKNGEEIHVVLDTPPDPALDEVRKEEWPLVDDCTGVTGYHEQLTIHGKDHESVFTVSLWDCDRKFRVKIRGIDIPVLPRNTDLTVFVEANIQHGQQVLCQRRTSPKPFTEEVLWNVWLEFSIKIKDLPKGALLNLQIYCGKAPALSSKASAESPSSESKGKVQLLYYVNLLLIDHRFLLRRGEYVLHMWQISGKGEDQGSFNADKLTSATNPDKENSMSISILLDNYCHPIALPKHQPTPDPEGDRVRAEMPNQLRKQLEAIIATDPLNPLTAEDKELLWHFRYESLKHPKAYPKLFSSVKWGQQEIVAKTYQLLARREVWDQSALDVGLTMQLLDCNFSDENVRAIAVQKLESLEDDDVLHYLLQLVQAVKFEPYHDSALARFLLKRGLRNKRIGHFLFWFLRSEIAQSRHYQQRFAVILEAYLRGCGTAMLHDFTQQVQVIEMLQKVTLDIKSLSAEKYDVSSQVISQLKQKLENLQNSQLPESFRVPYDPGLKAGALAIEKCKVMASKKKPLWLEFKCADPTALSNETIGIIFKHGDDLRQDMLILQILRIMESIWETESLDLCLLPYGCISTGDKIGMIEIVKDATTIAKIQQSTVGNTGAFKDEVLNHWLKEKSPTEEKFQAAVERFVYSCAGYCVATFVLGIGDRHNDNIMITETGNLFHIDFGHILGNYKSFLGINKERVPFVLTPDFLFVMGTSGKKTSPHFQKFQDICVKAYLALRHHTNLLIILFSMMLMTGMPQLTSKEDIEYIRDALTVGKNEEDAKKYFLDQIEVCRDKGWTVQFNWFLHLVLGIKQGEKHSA
# CYP2C19 = CYP2C19 (Homo sapiens, UniProt P33261); experiment: Inhibition of CYP2C19 at 10 uM; assay type: ADME
# CYP2C19, sequence (P33261 whole entry): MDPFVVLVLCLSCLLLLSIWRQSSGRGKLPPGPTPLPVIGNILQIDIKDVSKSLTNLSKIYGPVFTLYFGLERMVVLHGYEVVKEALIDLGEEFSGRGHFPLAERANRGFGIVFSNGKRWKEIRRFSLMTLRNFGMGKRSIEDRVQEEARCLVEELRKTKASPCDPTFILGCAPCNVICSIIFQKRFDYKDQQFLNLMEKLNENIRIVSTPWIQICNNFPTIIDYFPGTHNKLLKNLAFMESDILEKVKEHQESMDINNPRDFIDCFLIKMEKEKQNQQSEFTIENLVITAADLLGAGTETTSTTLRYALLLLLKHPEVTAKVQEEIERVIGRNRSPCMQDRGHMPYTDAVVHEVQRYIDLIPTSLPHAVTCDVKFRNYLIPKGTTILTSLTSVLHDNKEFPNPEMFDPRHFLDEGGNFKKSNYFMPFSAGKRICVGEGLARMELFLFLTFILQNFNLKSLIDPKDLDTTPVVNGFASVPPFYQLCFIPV
# [6] = Stability in human liver microsomes at 1 uM incubated for 15 mins; assay type: ADME, Microsome; details: read-out: Stability
# CYP3A4 = CYP3A4 (Homo sapiens, UniProt P08684); experiment: Inhibition of CYP3A4 at 10 uM; assay type: ADME
# CYP3A4, sequence (P08684 whole entry): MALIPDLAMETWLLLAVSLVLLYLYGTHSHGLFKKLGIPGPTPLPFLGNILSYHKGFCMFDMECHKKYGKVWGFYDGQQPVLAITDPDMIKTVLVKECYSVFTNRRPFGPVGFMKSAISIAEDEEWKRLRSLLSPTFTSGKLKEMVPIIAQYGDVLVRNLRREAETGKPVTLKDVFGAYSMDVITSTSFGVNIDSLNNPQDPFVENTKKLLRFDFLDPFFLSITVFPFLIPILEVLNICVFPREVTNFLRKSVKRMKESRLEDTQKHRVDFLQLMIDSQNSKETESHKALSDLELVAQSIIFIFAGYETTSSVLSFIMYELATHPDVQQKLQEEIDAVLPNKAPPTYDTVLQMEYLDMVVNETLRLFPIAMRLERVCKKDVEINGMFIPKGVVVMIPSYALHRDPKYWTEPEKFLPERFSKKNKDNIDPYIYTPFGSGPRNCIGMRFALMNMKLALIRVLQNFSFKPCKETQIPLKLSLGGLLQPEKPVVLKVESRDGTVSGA
# PI3-kinase p110-alpha/p85-alpha, sequence (P27986 whole entry): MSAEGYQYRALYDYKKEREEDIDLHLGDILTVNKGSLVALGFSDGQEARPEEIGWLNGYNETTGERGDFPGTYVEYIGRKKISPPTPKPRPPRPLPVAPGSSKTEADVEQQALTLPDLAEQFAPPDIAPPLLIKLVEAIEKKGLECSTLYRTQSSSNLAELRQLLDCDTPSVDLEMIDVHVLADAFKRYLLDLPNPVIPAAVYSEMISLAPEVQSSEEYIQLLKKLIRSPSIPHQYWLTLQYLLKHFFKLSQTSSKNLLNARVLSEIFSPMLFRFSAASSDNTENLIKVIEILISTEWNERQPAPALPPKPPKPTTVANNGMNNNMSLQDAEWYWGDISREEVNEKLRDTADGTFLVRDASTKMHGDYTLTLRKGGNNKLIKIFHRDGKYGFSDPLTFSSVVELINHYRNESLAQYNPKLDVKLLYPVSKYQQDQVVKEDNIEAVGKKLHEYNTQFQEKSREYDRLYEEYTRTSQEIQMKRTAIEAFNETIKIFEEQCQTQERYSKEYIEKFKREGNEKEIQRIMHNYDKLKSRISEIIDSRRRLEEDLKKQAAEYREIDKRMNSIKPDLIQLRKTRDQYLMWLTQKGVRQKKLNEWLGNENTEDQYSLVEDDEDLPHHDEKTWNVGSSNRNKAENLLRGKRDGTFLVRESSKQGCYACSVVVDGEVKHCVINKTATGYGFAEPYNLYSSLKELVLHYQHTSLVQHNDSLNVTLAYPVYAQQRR
# PI3-kinase p110-alpha/p85-alpha, sequence (P42336 whole entry): as the sequence (P42336 whole entry, canonical isoform) above
structure (smiles),measurement,setting,value
CNc1ncc(-c2nc(N3CCOCC3)c3nc(CN4CCN(S(C)(=O)=O)CC4)cn3c2Cl)cn1,IC50,[1],11.4 nM
CS(=O)(=O)N1CCN(Cc2cn3cc(-c4cnc(N)nc4C(F)(F)F)nc(N4CCOCC4)c3n2)CC1,inhibition at 10 µM,CYP2D6,< 30%
same,Ki,[2],5.06 nM
same,inhibition at 10 µM,CYP1A2,< 30%
same,inhibition at 10 µM,CYP2C9,< 30%
same,"remaining at 0.25 h, 1 µM",[3],96%
same,IC50,[1],6.8 nM
same,Ki,[1],7.4 nM
same,IC50,[4],10.2 nM
same,Ki,PI3K p110 beta/p85 alpha,79.8 nM
same,Ki,[5],26.7 nM
same,inhibition at 10 µM,CYP2C19,< 30%
same,"remaining at 0.25 h, 1 µM",[6],82%
same,inhibition at 10 µM,CYP3A4,< 30%
CS(=O)(=O)N1CCN(Cc2cn3cc(-c4cncnc4)nc(N4CCOCC4)c3n2)CC1,IC50,[1],123 nM
C[C@H](O)C(=O)N1CCN(Cc2cn3cc(-c4cnc(N)nc4)nc(N4CCOCC4)c3n2)CC1,IC50,[1],34.6 nM
Cc1ncc(-c2nc(N3CCOCC3)c3nc(CN4CCN(S(C)(=O)=O)CC4)cn3c2Cl)cn1,IC50,[1],21.6 nM
COc1ncc(-c2cn3cc(CN4CCN(S(C)(=O)=O)CC4)nc3c(N3CCOCC3)n2)cn1,IC50,[1],160 nM
C[C@@H]1CN(Cc2cn3cc(-c4cnc(N)nc4)nc(N4CCOCC4)c3n2)CCN1S(C)(=O)=O,IC50,[1],2.6 nM
CNc1ncc(-c2cn3cc(CN4CCN(S(C)(=O)=O)CC4)nc3c(N3CCOCC3)n2)cn1,IC50,[1],16.4 nM
C[C@@H]1CN(S(C)(=O)=O)C[C@H](C)N1Cc1cn2cc(-c3cnc(N)nc3)nc(N3CCOCC3)c2n1,IC50,[1],3.2 nM
same,IC50,[4],244 nM
CCS(=O)(=O)N1CCN(Cc2cn3cc(-c4cnc(N)nc4)nc(N4CCOCC4)c3n2)CC1,inhibition at 10 µM,CYP2D6,< 30%
same,inhibition at 10 µM,CYP1A2,< 30%
same,inhibition at 10 µM,CYP2C9,< 30%
same,"remaining at 0.25 h, 1 µM",[3],64%
same,IC50,[1],13.3 nM
same,IC50,[4],98.5 nM
same,inhibition at 10 µM,CYP2C19,< 30%
same,"remaining at 0.25 h, 1 µM",[6],98%
same,inhibition at 10 µM,CYP3A4,< 30%
CS(=O)(=O)C1CCN(Cc2cn3cc(-c4cnc(N)nc4)nc(N4CCOCC4)c3n2)CC1,IC50,[1],28.7 nM
CS(=O)(=O)N1CC2CN(Cc3cn4cc(-c5cnc(N)nc5)nc(N5CCOCC5)c4n3)CC2C1 (centres undefined),IC50,[1],117 nM
Cc1nc(N)ncc1-c1nc(N2CCOCC2)c2nc(CN3CCN(S(C)(=O)=O)CC3)cn2c1Cl,IC50,[1],13 nM
COc1cncc(-c2cn3cc(CN4CCN(S(C)(=O)=O)CC4)nc3c(N3CCOCC3)n2)c1,IC50,[1],1110 nM
CS(=O)(=O)N1CCN(Cc2cn3cc(-c4ccc5[nH]ccc5c4)nc(N4CCOCC4)c3n2)CC1,IC50,[1],> 10000 nM
CS(=O)(=O)N1CCN(Cc2cn3cc(-c4cccc5[nH]ccc45)nc(N4CCOCC4)c3n2)CC1,IC50,[1],2500 nM
C[C@H]1CN(Cc2cn3cc(-c4cnc(N)nc4)nc(N4CCOCC4)c3n2)CCN1S(C)(=O)=O,Ki,[2],14.7 nM
same,IC50,[1],5.5 nM
same,Ki,[1],6.2 nM
same,IC50,[4],120 nM
same,Ki,PI3K p110 beta/p85 alpha,319 nM
same,Ki,[5],124 nM
CS(=O)(=O)N1C2CCC1CN(Cc1cn3cc(-c4cnc(N)nc4)nc(N4CCOCC4)c3n1)C2,IC50,[1],108 nM
CS(=O)(=O)N1CCN(Cc2cn3c(Cl)c(-c4cnc(N)nc4C(F)(F)F)nc(N4CCOCC4)c3n2)CC1,IC50,[1],6.8 nM
CN(C)CC(=O)N1CCN(Cc2cn3cc(-c4cnc(N)nc4)nc(N4CCOCC4)c3n2)CC1,IC50,[4],480 nM
CS(=O)(=O)N1CCN(Cc2cn3c(Cl)c(-c4cnc5[nH]ccc5c4)nc(N4CCOCC4)c3n2)CC1,IC50,[1],166 nM
CS(=O)(=O)N1CCN(Cc2cn3cc(-c4ccc5[nH]ncc5c4)nc(N4CCOCC4)c3n2)CC1,IC50,[1],> 10000 nM
CS(=O)(=O)N1CCN(Cc2cn3cc(-c4cnc(N)c(C#N)c4)nc(N4CCOCC4)c3n2)CC1,IC50,[1],1010 nM
